Test results from article PMC8428568, “Discovery of re-purposed drugs that slow SARS-CoV-2 replication in human cells” (PLoS Pathogens, 2021).
Where a name gives a salt, the structure may show the parent alone. Read-outs that look alike come from different tables or passages of the source. *1 amine or outer side, *2 acyl side, *3 side chain or, on linkers, in order; H or OH if unused. Where a SMILES comes first, the peptide text is derived from it. Bridges are numbered along the chain shown (N, C = ends). [ ]: non-standard residue; d: D form. The star is where a group is joined. pTerphenylCO(4''-OnC5H11) = CCCCCOc1ccc(-c2ccc(-c3ccc(C(=O)*)cc3)cc2)cc1; Orn(4R-OH,5R-OH) = O=C([C@H](C[C@@H](O)[C@@H](O)N[*:3])N[*:1])[*:2]; hTyr(3S-OH,4S-OH) = N[C@H](C(=O)O)[C@H](O)[C@@H](O)c1ccc(O)cc1; Pro(3S-OH,4S-Me) = C[C@H]1CN[C@H](C(=O)O)[C@H]1O; Hyp = O=C(O)[C@@H]1C[C@@H](O)CN1

Tests used:
[1] = system: SARS-CoV-2-ΔOrf7a-NLuc virus; assay: microbe, parasite or virus in culture; format: cell-based; conditions: for activity at 10 µM: Severe acute respiratory syndrome coronavirus 2, Vero, 72 h, read-out: Mean relative luminescence (n=4); for activity at 10 µM / Mean relative luminescence (n=4): 1 = untreated, 0 = total inhibition
[2] = system: SARS-CoV-2-ΔOrf7a-NLuc virus; assay: microbe, parasite or virus in culture; format: cell-based
HUH7 cells = HUH7 cells screen
Vero cells = conditions: Vero cells, 10 μM; 1 = DMSO-treated infected cells
recombinant NLuc = format: biochemical; conditions: for Relative Recombinant NLUC: recombinant NLuc activity relative to DMSO; for Reads Counts per second (read 1) / Reads Counts per second (read 4) / Reads Counts per second (read 3) / Reads Counts per second (read 2): recombinant NLuc; for Reads Counts per second (read 1): first read column; for Reads Counts per second (read 4): fourth read column; for Reads Counts per second (read 3): third read column

Compound | effect on virus replication [1] | effect on virus replication [2] | toxic effects on cells (HUH7 cells) | % activity in Vero 100PFU screen [1] [%] | activity at 10 µM [1] [%] | PrestoBlue relative viability (Vero cells) | Relative Recombinant NLUC (recombinant NLuc) | Reads Counts per second (read 1) (recombinant NLuc) [Counts per second] | Reads Counts per second (read 4) (recombinant NLuc) [Counts per second] | Reads Counts per second (read 3) (recombinant NLuc) [Counts per second] | Mean relative luminescence (n=4) [1] | Reads Counts per second (read 2) (recombinant NLuc) [Counts per second]
Cc1cccc(C)c1OCC(=O)N[C@@H](Cc1ccccc1)[C@@H](O)C[C@H](Cc1ccccc1)NC(=O)[C@H](C(C)C)N1CCCNC1=O [Lopinavir] | failed to halt replication of SARS-CoV-2 | failed to halt replication of SARS-CoV-2 |  |  |  |  |  |  |  |  |  | 
C=C1CC[C@H](O)C/C1=C/C=C1\CCC[C@]2(C)[C@@H]([C@H](C)/C=C/[C@H](C)C(C)C)CC[C@@H]12 [vitamin D2] | also reduced virus replication but did not meet all criteria | also reduced virus replication but did not meet all criteria |  |  |  |  |  |  |  |  |  | 
CCN(CCO)CCCC(C)Nc1ccnc2cc(Cl)ccc12 (stereo not drawn) [hydroxychloroquine] |  | did show some effects | toxic effects on cells |  |  |  |  |  |  |  |  | 
CC[C@@H](C(=O)[C@@H](C)[C@@H](O)[C@H](C)[C@@H]1O[C@@H]([C@@H](CC)C(=O)O)CC[C@@H]1C)[C@H]1O[C@]2(C=C[C@@H](O)[C@]3(CC[C@@](C)([C@H]4CC[C@](O)(CC)[C@H](C)O4)O3)O2)[C@H](C)C[C@@H]1C [Salinomycin] |  |  |  | 3.75 | 1.89 | 0.6121 | 0.9779 | 365050 | 367850 | 373342 |  | 
CC(=O)[C@]1(O)Cc2c(O)c3c(c(O)c2[C@@H](O[C@H]2C[C@H](N)[C@H](O)[C@H](C)O2)C1)C(=O)c1ccccc1C3=O [Idarubicin HCl] |  |  |  | 2.14 | 1.49 | 0.5406 | 0.861 | 327538 | 318222 | 325691 |  | 
CC1=NN(c2ccc(C)c(C)c2)C(=O)/C1=N\Nc1cccc(-c2cccc(C(=O)O)c2)c1O [Eltrombopag] |  |  |  | 3.72 | 0.991 | 0.7191 | 0.8666 | 331875 | 322913 | 331553 |  | 
Cl.Fc1ccc([C@@H]2CCNC[C@H]2COc2ccc3c(c2)OCO3)cc1 [Paroxetine HCl] |  |  |  | 12 |  | 1.088 | 0.9732 | 360169 | 368856 | 369849 | 0.09097 | 
Cc1ccc(Sc2ccccc2N2CCNCC2)c(C)c1 [Vortioxetine] |  |  |  | 6 | 4.21 | 0.6088 | 0.8732 | 326546 | 332965 | 329264 |  | 
CN1CCN(CCCN2c3ccccc3Sc3ccc(C(F)(F)F)cc32)CC1.Cl.Cl [Trifluoperazine 2HCl] |  |  |  | 7 |  | 0.6995 | 0.9397 | 358281 | 360671 | 348422 | 0.05678 | 
CCCCCOc1ccc(-c2ccc(-c3ccc(C(=O)N[C@H]4C[C@@H](O)[C@@H](O)NC(=O)[C@@H]5[C@@H](O)[C@@H](C)CN5C(=O)[C@H]([C@@H](C)O)NC(=O)[C@H]([C@H](O)[C@@H](O)c5ccc(O)cc5)NC(=O)[C@@H]5C[C@@H](O)CN5C(=O)[C@H]([C@@H](C)O)NC4=O)cc3)cc2)cc1 [Anidulafungin] ({pTerphenylCO(4''-OnC5H11)}-[Orn(4R-OH,5R-OH)]T[Hyp][hTyr(3S-OH,4S-OH)]T[Pro(3S-OH,4S-Me)]; lactam 1-C) |  |  |  | 4.57 | 2.32 | 0.5453 | 0.974 | 365229 | 366012 | 364202 |  | 376574
CC(C)c1nc(CN(C)C(=O)N[C@H](C(=O)N[C@@H](Cc2ccccc2)C[C@H](O)[C@H](Cc2ccccc2)NC(=O)OCc2cncs2)C(C)C)cs1 [Ritonavir] | failed to halt replication of SARS-CoV-2 | failed to halt replication of SARS-CoV-2 |  |  |  |  |  |  |  |  |  | 
C[C@]12CC[C@H](O)CC1=CC[C@@H]1[C@@H]2CC[C@]2(C)C(c3cccnc3)=CC[C@@H]12 [Abiraterone] |  |  |  | 6.46 | 6.48 | 0.5649 | 0.7592 | 279631 | 289231 | 288897 |  | 289523
Br.Cc1ccc(Sc2ccccc2N2CCNCC2)c(C)c1 [Vortioxetine (Lu AA21004) HBr] |  |  |  | 1.39 |  | 0.509 | 0.7479 | 280784 | 284019 | 284246 | 0.007391 | 
O=C(/C=C/c1cccc(S(=O)(=O)Nc2ccccc2)c1)NO [Belinostat (PXD101), Belinostat] |  |  |  | 4.67 | 0.0366 | 0.895 | 0.9408 | 351877 | 355423 | 352055 |  | 362403
Oc1c(Cl)cc(Cl)c2cccnc12 [Chloroxine] |  |  |  | 6.5 | 3.55 | 0.5777 | 0.9975 | 380665 | 374884 | 374596 |  | 
CC(C)(Sc1cc(C(C)(C)C)c(O)c(C(C)(C)C)c1)Sc1cc(C(C)(C)C)c(O)c(C(C)(C)C)c1 [Probucol] |  |  |  | 5 | 2.23 | 0.7536 | 0.9023 | 337686 | 339611 | 341300 |  | 
C[C@@H]1C[C@H]2[C@@H]3CCC4=CC(=O)C=C[C@]4(C)[C@@]3(F)[C@@H](O)C[C@]2(C)[C@@]1(O)C(=O)CO [dexamethasone] | did not demonstrate any effect on viral replication | did not demonstrate any effect on viral replication |  |  |  |  |  |  |  |  |  | 
CC[C@@H]([C@H](C)O)n1ncn(-c2ccc(N3CCN(c4ccc(OC[C@@H]5CO[C@@](Cn6cncn6)(c6ccc(F)cc6F)C5)cc4)CC3)cc2)c1=O [Posaconazole] |  |  |  | 6 | 5.17 | 0.7676 | 0.8565 | 325406 | 315077 | 324458 |  | 
CSc1nc2cc(Cl)c(Oc3cccc(Cl)c3Cl)cc2[nH]1 [Triclabendazole] |  |  |  | 12 | 9.74 | 0.62 | 0.8923 | 335937 | 339544 | 336143 |  | 
